# Structures can show the parent of a compound that is named as a salt.
smiles,measurement,value
"COc1cc(C2=CCCCC2)c(Cl)cc1C(=O)N1Cc2ccc(C(=O)N(C)Cc3cccnc3)n2Cc2ccccc21 (as salt: tartaric acid salt) (hydrate or solvate) [Example 2, 10-(5-Chloro-4-cyclohex-1-en-1-yl-2-methoxybenzoyl)-N-methyl-N-(pyridin-3-ylmethyl)-10,11-dihydro-5H-pyrrolo[2,1-c][1,4]benzodiazepine-3-carboxamide L-(+)-tartaric acid salt hemihydrate]",melting point,138 to 177 °C

# — patent publication US20030055046A1, “Novel pyrido cyclohexenyl phenyl carboxamides tocolytic oxytocin receptor antagonists” (Wyeth, priority 2001, published 2003)
